Experimental data published in patent US9763996B2, “Polymyxin derivative and uses thereof” (Northern Antibiotics Ltd., priority 2015, dated 2017).
Values after ≈ are worked out from the molar mass of the structure shown. “Also recorded” adds a separate entry of the source. Where two headings read alike, the source gives them in different places. Where a SMILES comes first, the peptide text is derived from it. Bridges are numbered along the chain shown (N, C = ends). [ ]: non-standard residue; d: D form. The star is where a group is joined. Octanoyl = CCCCCCCC(=O)*; Dab = NCC[C@H](N)C(=O)O; Abu = CC[C@H](N)C(=O)O

Tests used:
[1] = 7-day IV infusion toxicity (nephrotoxicity) study in cynomolgus monkeys; conditions: for unscheduled necropsy / euthanized due to severe nephrotoxic effects: 3 animals per group
Experimental: In vivo toxicity and toxicokinetic studies were performed by using cynomolgus monkeys. The laboratory that performed the animal studies is accredited by the Association for Assessment and Accreditation of Laboratory Animal Care (AAALAC), has an Animal Welfare Assurance issued by the Office of Laboratory Animal Welfare (OLAW), is registered with the United States Department of Agriculture (USDA), and has an Institutional Animal Care and Use Committee (IACUC) responsible for compliance with applicable laws and regulations concerning the humane care and use of laboratory animals.
Naïve female cynomolgus monkeys were acclimatized to study room for 28 days during which each animal was implanted with a permanent indwelling femoral catheter to permit continuous intravenous infusions. The animals were allowed surgical recovery period of at least 2 weeks before initiating dosing.
Polymyxin B sulfate was from Sigma-Aldrich (catalogue number P0972, lot number BCBF8382V). On each day of use, appropriate quantities of NAB739, NAB815 or polymyxin B were weighed and dissolved in appropriate volumes of sterile saline to prepare a stock solution for each test article and positive control. A correction factor was used in the stock solution preparation to account for both the purity and sulfate content in each test article. Accordingly, the dose (such as 36 mg/kg/d) refers to the dose of the pure peptide as its free base form, not as its sulfate salt.
The doses were the following: polymyxin B 18 mg/kg/d (Group 1), polymyxin B 24 mg/kg/d (Group 2), NAB739 24 mg/kg/d (Group 3), NAB739 36 mg/kg/d (Group 4), NAB815 24 mg/kg/d (Group 5), NAB815 36 mg/kg/d (Group 6). Three animals were included in each study groups.
For seven days, the animals were dosed by intravenous (IV) infusion three times daily (TID) at a dose volume of 10 mL/kg for 1 hour (±10 minutes), 8±0.5 hours apart. The day of initial dose administration was designated study Day 1, with subsequent days consecutively numbered. Days prior to the initial dose administration were consecutively numbered with the final day of acclimation referenced as Day −1.
The following parameters were evaluated at designed intervals: clinical observations, body weights, clinical pathology (hematology, coagulation, serum chemistry, urinalysis including urine sediments and urine chemistry), toxicokinetics (plasma and urine) and anatomic pathology (kidney). In cases of animals sacrificed on an unscheduled basis, samples were taken on the day of the sacrifice.
On the day of necropsy, animals were sedated with ketamine, weighed, and anesthetized with an intravenous injection of a commercial pentobarbital and phenytoin solution, followed by exsanguinations.
At necropsy, gross observations and organ weights were recorded, and specific tissues were collected. Histopathology was conducted on sections of kidney stained with hematoxylin and eosin (H&E).
The figures also show Urine N-acetyl-β-D-glucosaminidase/urine creatinine ratio (U-NAG/Crea; FIG. 3) and Urine Gamma Glutamyltransferase/urine creatinine ratio (U-GGT/Crea; FIG. 4), both urine biomarkers for kidney injury, in those animals. S-Crea and U-Crea were measured by using an Olympus Analyzer (OA) and the modified Jaffe method, S-BUN by using OA and urease/L-glutamate dehydrogenase. U-NAG was measured by using OA/enzymatic, and U-GGT by using OA and glutamyl-carboxy-p-nitroanilide IFCC.
The presence of the following nephro-pathological parameters was recorded in each animal: tubular basophilia (re-generation), tubular degeneration/necrosis, infiltration (by mononuclear and/or mixed inflammatory cells), tubular dilatation, and tubular casts.

[2] = tested on: A. baumannii CMI 417
[3] = tested on: K. pneumoniae ATCC 43816; conditions: K. pneumoniae ATCC 43816
[4] = tested on: A. baumannii ATCC 19606; conditions: A. baumannii ATCC 19606
[5] = tested on: E. coli JMI 3328; conditions: for MIC: E. coli JMI 3328
[6] = tested on: K. pneumoniae JMI 27072; conditions: K. pneumoniae JMI 27072
[7] = tested on: K. pneumoniae JMI 27068
[8] = in combination with rifampin 0.25 μg/mL, A. baumannii CMI 417
[9] = in combination with rifampin 0.25 μg/mL
[10] = peptide at 1 μg/mL, E. coli JM13328
[11] = alone, K. pneumoniae JMI 27068 (polymyxin-nonsusceptible)
[12] = in combination with rifampin 0.25 μg/mL, K. pneumoniae JMI 27068

In the case of `CCCCCCCC(=O)N[C@@H](CCN)C(=O)N[C@H](C(=O)N[C@@H](C(=O)N[C@H]1CCNC(=O)[C@H]([C@@H](C)O)NC(=O)[C@H](CCN)NC(=O)[C@H](CC)NC(=O)[C@H](CC(C)C)NC(=O)[C@@H](Cc2ccccc2)NC(=O)[C@H](CCN)NC1=O)[C@H](C)O)[C@@H](C)O` [NAB815, octanoyl-αDab-Thr-DThr-[cyclo-α,γDab-αDab-DPhe-Leu-Abu-αDab-Thr]] (Octanoyl-[Dab]T[dT][Dab][Dab][dF]L[Abu][Dab]T; lactam 4-C), the “kidney injury markers (S-BUN, S-Crea, U-NAG/Crea, U-GGT/Crea)” value ([1]; 24 mg/kg/d IV TID 7 days) is reported as “None of the parameters was elevated”, the “kidney injury markers (S-BUN, S-Crea, U-NAG/Crea, U-GGT/Crea)” value ([1]; 36 mg/kg/d IV TID 7 days) is reported as “only minor if any elevations in the four parameters” and the “unscheduled necropsy / euthanized due to severe nephrotoxic effects” value (“unscheduled necropsy / euthanized due” for short) ([1]; 36 mg/kg/d IV TID 7 days) is reported as “underwent no prescheduled necropsy”. The “kidney histopathology findings (grade of nephro-pathological parameters)” value ([1]; 36 mg/kg/d IV TID, H&E kidney sections, per animal(s)) was “moderate findings, both in one parameter only; also recorded: no other than minimal or mild findings; also recorded: less severe nephropathic alterations with NAB815”, the MIC [2, 8] was 2 µg/mL and the MIC [3, 9] was 1 µg/mL. The “MIC of rifampin in the presence of the peptide” value ([3]; peptide at 1 μg/mL) was 0.25 µg/mL, the “factor of decrease of the MIC of rifampin” value ([3]; peptide at 1 μg/mL) was 64 and the MIC ([4]; alone) was 4 µg/mL (≈ 3.4 µM). For the same compound, the MIC [4, 9] was 0.5 to 2 µg/mL, the MIC ([5]; alone) was 4 µg/mL (≈ 3.4 µM) and the MIC [5, 9] was 1 µg/mL. The “MIC of rifampin in the presence of the peptide” value [5, 10] was 0.25 µg/mL, the “factor of decrease of the MIC of rifampin” value [5, 10] was 32 and the MIC ([6]; alone) was 2 to 4 µg/mL. For the same compound, the MIC [7, 11] was 128 µg/mL (≈ 109 µM) and the MIC [7, 12] was 4 µg/mL.
With Polymyxin B the “unscheduled necropsy / euthanized due” value ([1]; 18 mg/kg/d IV TID 7 days) was “all the three animals receiving polymyxin B at 18 mg/kg/d had to be euthanized; also recorded: on Day 4 for one animal receiving 18 mg/kg/d; also recorded: on Day 5 for two animals receiving 18 mg/kg/d”, the “unscheduled necropsy / euthanized due” value ([1]; 24 mg/kg/d IV TID 7 days) was “Two animals receiving polymyxin B at 24 mg/kg/d; also recorded: for two animals receiving 24 mg/kg/d” and the “S-BUN, S-Crea and U-GGT/Crea” value ([1]; 18 and 24 mg/kg/d IV TID, all the six animals) was “remarkably increased”. For the same compound, the U-NAG/Crea ([1]; 18 and 24 mg/kg/d IV TID, six animals) was “remarkably increased in five of the animals”, the MIC ([2]; alone, A. baumannii CMI 417 (polymyxin-nonsusceptible)) was 32 µg/mL and the MIC [2, 8] was 1 µg/mL. For the same compound, the MIC ([3]; alone) was 2 µg/mL, the MIC [3, 9] was 0.5 to 1 µg/mL and the MIC ([4]; alone) was 2 µg/mL. It also gave an MIC [4, 9] of 0.5 µg/mL, an MIC ([5]; alone) of 2 µg/mL and an MIC [5, 9] of 0.5 to 1 µg/mL. The MIC ([6]; alone) was 2 µg/mL, the MIC [6, 9] was 1 µg/mL and the MIC [7, 11] was 64 µg/mL. The MIC [7, 12] was 1 µg/mL.
